Row | SMILES | melting point
1 | Cc1nc(-c2ccc(F)cc2)c(COc2ccc(-c3nc4cc(C(=O)O)ccc4n3C3CCCCC3)cc2)s1 | 196 to 198 °C
2 | CCCCC(=O)N(Cc1cccc(OC)c1)c1cc(F)cc(-c2nnn[nH]2)c1 | 118 to 120 °C
3 | Cc1cc(-c2cnn3c(C(F)(F)F)cc(-c4ccc(Cl)c(Cl)c4)nc23)cc(C)n1 | 281 °C
4 | CC(=O)c1cc2c(s1)C(=O)c1c(C(C)=O)csc1C2=O | 207 to 208 °C
5 | Cc1nc(NC(=O)c2cc(F)cc(F)c2)sc1C(=O)NCc1ccccc1 | 84 to 86 °C
6 | CSc1ccc(N2CCOC2=O)cc1[N+](=O)[O-] | 180 °C
7 | CC(C)n1c(C=O)c(-c2ccc(F)cc2)c(-c2ccc(F)cc2)c1C(=O)Nc1cccc(C(=O)N(C)C)c1 | 133 to 135 °C
8 | Cc1cccc2nc(C(S)c3ncnc4[nH]cnc34)n(-c3ccccc3F)c(=O)c12 (centres undefined) | 152 °C
9 | COc1ccc(CC2Cc3cccc(-c4cccc(C(=O)NCCN5CCCC5)c4)c3O2)cc1OC (centres undefined) | 134 to 135 °C
10 | FC(F)(F)COc1cc(-c2cc(C(F)(F)F)n3ncc(-c4ccncc4)c3n2)ccc1C(F)(F)F | 251 °C
11 | CCCCCC12CCC(c3ccc(C#N)c(F)c3)(CC1)CC2 | 63 °C
12 | O=C(CC1COC1)N[C@H]1CC[C@H](CCN2CCN(c3nccc4c3OCC4)CC2)CC1 | 175 °C
13 | Brc1ccc2sc3ccccc3c2c1 | 112 to 116 °C
14 | CCSc1ccc(-c2ncco2)c2c1C(=O)CC(C)C2 (centres undefined) | 111 to 113 °C
15 | CC(C)n1nnc(-c2cnc3ccccn3c2=O)n1 | 146 to 148 °C
16 | OC1CSC(Oc2cnccc2-c2ccc(F)cc2)C(O)C1O (centres undefined) | 219 °C
17 | Cn1c(=O)cnn(-c2cc(O)c(Cl)cc2Cl)c1=O | 199 to 201 °C
18 | COc1cnccc1NC(=O)Nc1ccc(N2CCN(C(=O)Nc3ccc(OCCO)cc3C(F)(F)F)CC2)cc1 | 142 to 143 °C
19 | O=Cc1ccc(OCc2coc(/C=C/c3ccc(S(=O)C(F)(F)F)cc3)n2)cc1 (centres undefined) | 144 to 147 °C
20 | O=c1nc(-c2ccccc2)c2ccsc2n1CC1CC1 | 191 to 192 °C
21 | CCC(=O)n1c(=O)n(-c2ccc([N+](=O)[O-])cc2)c(=O)n1C(=O)CC | 140 to 142 °C
22 | O=c1[nH]c2cc(Cl)cc(Cl)c2c(=O)n1Cc1ccc([N+](=O)[O-])cc1 | 227 to 230 °C
23 | O=C(NCc1cccs1)C1CC2C=CC1C2 (centres undefined) | 123 to 124 °C
24 | CN(c1cccc2cc(C(N)=O)[nH]c12)S(=O)(=O)c1nccs1 | 220 to 221 °C

Row | SMILES | melting point
25 | CC(C)c1onc(-c2ccccc2)c1S(=O)(=O)c1ccc(O)cc1 | 173 to 174 °C
26 | COc1nc2ccccc2c(-c2ccccc2)c1C(=O)N(C)Cc1cc(C(F)(F)F)cc(C(F)(F)F)c1 | 146 to 147 °C
27 | CNC(=O)C(Cc1ccc(OC)cc1)NC(=O)C(CC(C)C)C(S)CC(=O)OC(C)(C)C (centres undefined) | 133 to 137 °C
28 | CCc1nnc(-c2ccc(N(C)C)cc2)n1-c1ccc(OC)cc1 | 148 °C
29 | CCN(CC)CC(=O)N1c2ccccc2NC(=O)c2c1c(C)cn2C | 174 to 175 °C
30 | CCOC(=O)N1Cc2cc(NN=C(C)C)nnc2C(C)C1 (centres undefined) | 140 to 142 °C
31 | CC(C)OCc1nc2nccnc2c(=O)[nH]1 | 198 to 199 °C
32 | C=CCONC(CCC)=C1C(=O)CC(CCC2OCCCO2)CC1=O (centres undefined) | 50 to 52 °C
33 | CCOC(=O)c1c(N2CCN(c3ccccc3)CC2)n[nH]c1C | 137 to 138 °C
34 | Cc1cc(C)cc(OCC(O)CNc2nc(-c3ccccc3)nc3ccccc23)c1 (centres undefined) | 170 to 172 °C
35 | Fc1ccc(C2=NOC(CN=C=S)C2)cc1 (centres undefined) | 59 to 61 °C
36 | COc1cc(NC(N)=S)cc(OC)c1OC | 203 to 205 °C
37 | Brc1ccccc1CCn1ccccc1=NC(=NC1CCCCC1)NC1CCCCC1 | 125 to 129 °C
38 | N#CCN1C(=O)N(c2ccc(C#N)c(C(F)(F)F)c2)C(=O)C1(CO)CO | 157 to 158 °C
39 | N#Cc1ccc2c(c1)CC(Br)C2=O (centres undefined) | 115 to 118 °C
40 | CCCCCCCCCCCCCCCCCCOc1ccc(NC(=O)c2ccc(OC(C)=O)cc2)cc1OCCCCCCCCCCCCCCCCCC | 107 °C
41 | CCOCOCCCOn1cnc2cnc(N)nc21 | 73 to 74 °C
42 | O=C(CBr)Nc1ccc(Cl)cc1C(=O)c1ccc(O)cc1 | 201 to 203 °C
43 | Ic1ccc(-c2ccc(I)s2)s1 | 164 °C
44 | Clc1cc(Cl)c2oc(-c3ccc(C=Cc4ccc(-c5ccccc5)cc4)cc3)cc2c1 | 258 to 260 °C
45 | Cc1c(-c2ccccc2)oc2cc(OCC3CO3)ccc2c1=O (centres undefined) | 231 to 235 °C
46 | CC(C)CCc1c(-c2ccc(S(N)(=O)=O)cc2)cnn(-c2ccc(F)c(F)c2)c1=O | 171 to 173 °C
47 | CC(C)(C)OC(=O)NC1CCCCCC=CC2CC2(C(=O)NS(=O)(=O)C2CC2)NC(=O)C2CC(OC(=O)c3ccc(-n4cccn4)cc3)CN2C1=O (centres undefined) | 167 to 169 °C

Next, values leading:

Row | melting point | SMILES
48 | 114 °C | CCC(=O)/C=C/c1c([N+](=O)[O-])ccc2c1OC(COS(=O)(=O)c1ccc(C)cc1)CO2 (centres undefined)
49 | 62 to 63 °C | CCCCCCCC[Si](C)(C)c1cccc(Cl)c1C(=O)NCC
50 | 129 to 132 °C | COc1ccc(N2CCN(c3c(C)c(C)c4c(c3C)CC(C)(CN3CCCC3)O4)CC2)cc1 (centres undefined)
51 | 95 to 96 °C | COc1cc(CCCO)ccc1OCc1coc(/C=C/c2ccccc2)n1
52 | 57 to 59 °C | Cc1c(Cl)c(Oc2ncc(C(F)(F)F)cc2Cl)nn1C(=O)NC(C)C
53 | 155 to 157 °C | COc1ccc(N2CCN(c3nc(NC(C)(C)C(C)(C)C)nc(NC(C)(C)C(C)(C)C)n3)CC2)cc1
54 | 139 to 141 °C | CC(C)OCc1nc(N)c2nccnc2n1
55 | 189 to 190 °C | CSc1ccc(-c2ccc(C(=O)Nc3ccc4cc(CN5CCCC5)cnc4c3C)c(F)c2)cc1
56 | 208 to 209 °C | CCc1cc(C(=O)O)ccc1N=C1SCC2(CCCC2)N1C1CCCC1
57 | 148 to 149 °C | Cc1nc2c(O[C@@H]3c4ccccc4C[C@H]3O)cc(C(=O)NC3CC3)cc2n1C (relative stereo)
58 | 180 °C | O=C(O)CCc1cc2nc(C(F)(F)F)ccc2n1S(=O)(=O)c1ccccc1
59 | 202 to 203 °C | CC1(c2ccccc2)OC(=S)Nc2ccc(-c3cccc(Cl)c3)cc21 (centres undefined)
60 | 133 to 134 °C | COC(=O)C(=C(/C)c1ccc(OC2CCCC2)c(OC)c1)/C(=C\c1ccccc1)C(N)=O
61 | 278 °C | NS(=O)(=O)c1cccc(NC(=O)c2cnn3c(C(F)F)cc(-c4ccc(Cl)cc4)nc23)c1
62 | 94 to 99 °C | Cc1cn(COCCOC(=O)c2ccccc2)c(=O)[nH]c1=O
63 | 94 °C | CN(C)Cc1ccc2c(NCc3ccc(NC(=O)c4ccc(F)cc4)cc3)nc(N(C)C)nc2c1
64 | 158 to 160 °C | C=CCn1c(=O)c2cnc(-n3ccnc3)nc2n(C(C)C)c1=O
65 | 82 to 84 °C | O=S(=O)(Nc1cc(Cl)c(Oc2nc3ccc(Cl)cc3s2)c(Cl)c1)c1ccc(C(F)(F)F)cc1Cl
66 | 262 to 263 °C | O=C(NCc1ccccc1)c1cc(N2CCN(Cc3ccc(F)cc3)C2=O)n[nH]1
67 | 58 to 60 °C | Cc1cc(C)n(C)c(=O)n1
68 | 223 °C | CCCn1nc(O)c2cc(Cl)c(Cl)cc2c1=O
69 | 188 to 189 °C | O=C(/C=C/c1ccccc1)Nc1ccccc1C(=O)O
